Test systems include CCRF-CEM; COLO 205; HCT-116; HL-60; K562; NCI-H226; NCI-H23; NCI-H460; NCI-H522; RPMI-8226; SF-268; SK-MEL-5; SK-OV-3; SNB-19; TK-10; U-251; UACC-257.
Common to all, as to test: growth of human tumour cells (NCI), 48 h

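Growth conditions: 96-well plates. Treatment: test compound, 48 hours, 5 concentrations. Analysis: linear interpolation between bracketing concentrations; unreached endpoints set to highest concentration. Abbreviation: GI50, concentration required for 50% inhibition of growth.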 Activity calls are given as the source filed them. No stated cut-off is given here; in the data, active = GI50 up to about 1.1 µM and inactive = higher. Bounds are passed on as bounds.

Turning to `COc1ccc2c(c1)c(=O)c1c(NCCN(C)C)ccc3nnn2c31`, the GI50 in the assay on CCRF-CEM was 0.918 µM (active); with COLO 205, 1.36 µM (inactive); in the assay on HCT-116, 0.655 µM (active); with HL-60 it was 1.82 µM (inactive); with K562 it was 1.6 µM (inactive); in the assay with NCI-H226, 2.46 µM (inactive). Also, the GI50 is 2.68 µM (inactive) in the assay on NCI-H23; 1.61 µM (inactive) in the assay on NCI-H460; 2.7 µM (inactive) in the assay on NCI-H522; 1.65 µM (inactive) in the assay with RPMI-8226; 2.13 µM (inactive) with SF-268; 3.17 µM (inactive) in the assay on SK-MEL-5. The GI50 in the assay on SK-OV-3 is 4.01 µM (inactive); in the assay with SNB-19, 3.52 µM (inactive); in the assay with TK-10 it was 2.5 µM (inactive); in the assay with U-251, 3.08 µM (inactive); in the assay on UACC-257, 4.69 µM (inactive).
In the case of `C=C1C(=O)OC2C=C(CCC(C)=O)C(C)C(OC(C)=O)CC12` (configuration not stated), the GI50 in the assay on CCRF-CEM was 2.6 µM (inactive); in the assay with HCT-116, 5.19 µM (inactive); with HL-60 it was 3.33 µM (inactive); in the assay with K562, 3.86 µM (inactive); in the assay with NCI-H226 it was 13.6 µM (inactive); with NCI-H460, 18.7 µM (inactive). In addition, the GI50 with RPMI-8226 is 4.52 µM (inactive); in the assay with SF-268, 16.1 µM (inactive); with SNB-19, 17.6 µM (inactive); in the assay with TK-10, 12 µM (inactive); with U-251, 17.1 µM (inactive).
In the case of `Cc1cc(C)nc(NS(=O)(=O)c2ccc(NC(=O)c3cccc4cc5ccccc5nc34)cc2)n1`, the GI50 was 21.4 µM (inactive) in the assay with CCRF-CEM; 39.4 µM (inactive) with COLO 205; 17.2 µM (inactive) with HCT-116; 24.5 µM (inactive) in the assay with K562; 23.2 µM (inactive) in the assay on NCI-H226; 25.9 µM (inactive) in the assay with NCI-H23. Besides, the GI50 is 34 µM (inactive) in the assay with NCI-H460; 18.7 µM (inactive) in the assay with NCI-H522; 21.4 µM (inactive) in the assay on RPMI-8226; 16.2 µM (inactive) in the assay on SF-268; 25.5 µM (inactive) with SK-MEL-5; > 100 µM (inactive) with SK-OV-3. The GI50 in the assay with SNB-19 was 25.7 µM (inactive); with TK-10, 50.2 µM (inactive); with U-251 it was 30.6 µM (inactive); in the assay with UACC-257, 37.3 µM (inactive).
In the case of `Cc1ccc(/C=N/NS(=O)(=O)c2ccccc2)cc1`, the GI50 with CCRF-CEM, with COLO 205, in the assay on HCT-116, with HL-60, in the assay on K562 and in the assay on NCI-H226 was > 100 µM (inactive) in each case. Moreover, the GI50 in the assay with NCI-H23, in the assay with NCI-H460, in the assay with RPMI-8226, in the assay on SF-268, in the assay with SK-MEL-5 and in the assay on SK-OV-3 was > 100 µM (inactive) each time. Also, the GI50 in the assay with TK-10, in the assay on U-251 and with UACC-257 was > 100 µM (inactive) throughout.
Turning to `COC(=O)CCSC(=O)Nc1ccccc1Cl`, the GI50 was 58.1 µM (inactive) in the assay with CCRF-CEM; > 100 µM (inactive) with COLO 205; > 100 µM (inactive) with HCT-116; 63.1 µM (inactive) with HL-60; > 100 µM (inactive) in the assay on K562; > 100 µM (inactive) in the assay with NCI-H226. The GI50 is > 100 µM (inactive) in the assay with NCI-H23; > 100 µM (inactive) in the assay on NCI-H460; 1.36 µM (inactive) with NCI-H522; > 100 µM (inactive) with RPMI-8226; > 100 µM (inactive) in the assay on SF-268; > 100 µM (inactive) with SNB-19. Further, the GI50 in the assay on TK-10, in the assay with U-251 and with UACC-257 was > 100 µM (inactive) each time.
For the compound `CC(=O)OC[C@@H]1[C@H]2CC(=O)O[C@H]2C[C@H]1OC(C)=O`, the GI50 is > 100 µM (inactive) with CCRF-CEM; 24.7 µM (inactive) in the assay on COLO 205; 94 µM (inactive) in the assay with HCT-116; > 100 µM (inactive) with HL-60; > 100 µM (inactive) in the assay with NCI-H460; > 100 µM (inactive) in the assay on NCI-H522. In addition, the GI50 in the assay with RPMI-8226, with SF-268, in the assay on SK-MEL-5, with SK-OV-3, in the assay on SNB-19 and in the assay with TK-10 was > 100 µM (inactive) throughout. The GI50 in the assay with U-251 and with UACC-257 was > 100 µM (inactive) in each case.
Take `COC1OC(C)C2OC(C)(C)OC2C1OC(C)=O` (configuration not stated): the GI50 with CCRF-CEM, in the assay on COLO 205, in the assay with HCT-116, in the assay with HL-60, with K562 and with NCI-H226 was > 100 µM (inactive) each time. In addition, the GI50 in the assay on NCI-H23, with NCI-H460, in the assay on NCI-H522, in the assay on RPMI-8226, in the assay on SF-268 and in the assay with SK-MEL-5 was > 100 µM (inactive) in each case. Further, the GI50 in the assay with SNB-19, with TK-10, in the assay on U-251 and in the assay with UACC-257 was > 100 µM (inactive) throughout.
With `COCCOCC(=O)N(CCn1ccc(NC(c2ccccc2)(c2ccccc2)c2ccccc2)nc1=O)CCn1cnc2nc(N)[nH]c(=O)c21`, the GI50 with CCRF-CEM, in the assay with COLO 205, in the assay with HCT-116, with HL-60, in the assay with K562 and with NCI-H226 was > 100 µM (inactive) in each case. Further, the GI50 with NCI-H23, in the assay on NCI-H460, in the assay with RPMI-8226, with SF-268, in the assay on SK-MEL-5 and with TK-10 was > 100 µM (inactive) in each case. For the same compound, the GI50 with U-251 and in the assay with UACC-257 was > 100 µM (inactive) each time.
As for `O=C(CC1(O)C(=O)Nc2c(Cl)cc(Cl)cc21)c1ccc(F)cc1` (configuration not stated), the GI50 is 19 µM (inactive) in the assay on COLO 205; 35.4 µM (inactive) in the assay on HCT-116; 33.3 µM (inactive) with NCI-H226; 28.5 µM (inactive) with NCI-H23; 38.8 µM (inactive) in the assay with NCI-H460; 24.9 µM (inactive) with RPMI-8226. The GI50 with SF-268 is 39.6 µM (inactive); in the assay with SK-OV-3, 93.8 µM (inactive); with SNB-19, 59.3 µM (inactive); in the assay on TK-10, > 100 µM (inactive); in the assay on U-251 it was 31.3 µM (inactive); with UACC-257, 27.6 µM (inactive).
In the case of `COC1(C)C(=O)N2C1N(C(=O)OCc1ccccc1)CC2(C)C` (configuration not stated), the GI50 in the assay on CCRF-CEM, in the assay on COLO 205, in the assay on HCT-116, in the assay on HL-60, in the assay on K562 and in the assay on NCI-H226 was > 100 µM (inactive) throughout. The GI50 with NCI-H23, in the assay on NCI-H460, in the assay on RPMI-8226, with SF-268, with SK-MEL-5 and with SNB-19 was > 100 µM (inactive) in each case. The GI50 in the assay with TK-10, in the assay on U-251 and with UACC-257 was > 100 µM (inactive) each time.
Turning to `O=C(N/C(=C\c1cccc([N+](=O)[O-])c1)c1nc2c3c(ccc2[nH]1)C(=O)c1ccccc1C3=O)c1ccccc1`, the GI50 with HCT-116 is 31.6 µM (inactive); in the assay with NCI-H226, 14 µM (inactive); with NCI-H23 it was 30.3 µM (inactive); in the assay with NCI-H460, 24.7 µM (inactive); with NCI-H522, 16.5 µM (inactive); in the assay with RPMI-8226, 14.1 µM (inactive). For the same compound, the GI50 in the assay with SF-268 is 17.8 µM (inactive); in the assay with SK-MEL-5 it was 31.2 µM (inactive); with SK-OV-3, 6.78 µM (inactive); with SNB-19, 41.4 µM (inactive); in the assay on TK-10, 20.2 µM (inactive); with U-251, 34.8 µM (inactive).
On to `Cc1cccc(/N=C/c2ccc(N(CCC#N)S(=O)(=O)c3ccccc3)cc2C)c1`, for which the GI50 with CCRF-CEM was 19.1 µM (inactive); in the assay on COLO 205, > 100 µM (inactive); with HCT-116, > 100 µM (inactive); with HL-60, 21.9 µM (inactive); in the assay with K562 it was 34.5 µM (inactive); with NCI-H226 it was 20.7 µM (inactive). In addition, the GI50 in the assay with NCI-H23 was > 100 µM (inactive); in the assay with NCI-H522, > 100 µM (inactive); in the assay on RPMI-8226 it was 63.4 µM (inactive); in the assay on SF-268 it was 58.9 µM (inactive); in the assay with SK-MEL-5 it was > 100 µM (inactive); in the assay on SK-OV-3, > 100 µM (inactive). The GI50 in the assay with SNB-19, in the assay on TK-10, with U-251 and in the assay with UACC-257 was > 100 µM (inactive) in each case.
With `CC1(C)C(O)OC(O)C1(C)C` (configuration not stated), the GI50 is 46 µM (inactive) in the assay with CCRF-CEM; > 100 µM (inactive) in the assay with COLO 205; 33.9 µM (inactive) in the assay on HCT-116; 42.9 µM (inactive) in the assay on HL-60; 57.9 µM (inactive) in the assay with K562; 18.1 µM (inactive) in the assay with NCI-H226. Also, the GI50 with NCI-H460 is > 100 µM (inactive); in the assay with RPMI-8226 it was 70 µM (inactive); with SK-MEL-5, 32.8 µM (inactive); in the assay on SK-OV-3, > 100 µM (inactive); in the assay with SNB-19, 66.8 µM (inactive); with TK-10 it was > 100 µM (inactive). The GI50 in the assay on U-251 was > 100 µM (inactive); with UACC-257, 34.5 µM (inactive).

Values taken from ChEMBL document CHEMBL1201862, “PubChem BioAssay data set” (2004).
